{
  "source": "patent US9937227B2",
  "about": "“Humanin, analogs and cancer treatment methods and uses thereof” (LOS ANGELES BIOMEDICAL RESEARCH INSTITUTE AT HARBOR-UCLA …, priority 2014, dated 2018)",
  "system": "Leydig cells",
  "test": "Testosterone of cultured Leydig cells treated with ketoconazole",
  "format": "cell-based, rat",
  "settings": "KTZ 10 mcg/ml, 4 hours",
  "procedure": "Leydig cells were isolated based on a previously described procedure (Gao, et al., 1996; Klinefelter, et al., 1987; Salva, et al., 2001). Briefly, the testes were decapsulated, and then dissociated with collagenase, dispase, DNase and shaking for 15 min at 34° C. The seminiferous tubules were removed by filtration through 40 μm nylon mesh (BD Falcon, Franklin Lakes, N.J.). Leydig cells were then harvested after centrifugation and purified using a Percoll gradient (GE Healthcare, Uppsala, Sweden) and centrifugation (60 minutes at 20,000 g at 4° C.). Enriched Leydig cells were harvested at densities between 1.065 (red) and 1.075 (blue) g/cm^3 from the percoll gradient. These Leydig cells were washed by diluting the percoll and excluding residual germ cells and other cells using a BSA density gradient with centrifugation. The purity of the Leydig cells was >90%, as determined by histochemical staining for 3β-hydroxysteroid dehydrogenase. The cell viability, as assessed by trypan blue exclusion, was greater than 90%. […]\nTestosterone concentrations in plasma, testes, and culture medium were measured by a previously described radioimmunoassay (Lue, et al., 2010) with a minimal detection limit of 0.1 ng/ml. […]",
  "data": [
    {"compound": "CC(=O)N1CCN(c2ccc(OCC3COC(Cn4ccnc4)(c4ccc(Cl)cc4Cl)O3)cc2)CC1", "note": "(stereo not shown) [KTZ, ketoconazole]", "values": [
      {"measurement": "testosterone levels compared to control", "value": "lowered the testosterone levels significantly"}
    ]}
  ]
}
